Results: patent US20150025031A1, “METABOLIC DOWNREGULATION FOR CELL SURVIVAL” (WAKE FOREST UNIVERSITY HEALTH SCIENCES, priority 2012, published 2015)

Tests used:
C2C12 cells = assay: MTS metabolic activity per cell, C2C12 under 0.1% hypoxia; type: cell-based, murine; settings: 5 mM adenosine
Procedure: Hypoxic condition was maintained with a gas mixture containing 0.1% O2, 5% CO2 and 94.9% N2 at 37° C. and full humidity in an X-Vivo System (Biospherix). […] The hypoxic groups were then placed to the hypoxic chamber and incubated up to day 11, whereas the normoxic group continued to be incubated in the regular incubator. No medium change was made on both normoxic and hypoxic groups up to day 11. After transfer to normoxic conditions, cells were cultured in the regular incubator with an exchange of no adenosine-containing, fresh medium every third day.
Mitochondrial metabolic activity of viable cells was assessed using a 3-(4,5-dimethylthiazol-2-yl)-5-(3-carboxymethoxyphenyl)-2-(4-sulfophenyl)-2H-tetrazolium (MTS) assay (Promega). Cells were rinsed with PBS three times followed by the addition of 120 μL of MTS reagent to each well. After an hour of incubation, optical density (OD) of a brown formazan product by dehydrogenase enzymes in metabolically active cells was measured with a microplate reader at 490 nm. The mean OD value obtained from media blanks was standardized as […]. For some analyses, metabolic activity measured at each time point was normalized by the cell number obtained from PicoGreen assay as previously described. The total metabolic activity represented by the area under the curve over time was computed using Origin Pro v. 8 (Origin Lab Corporation).

[1] = tested on: Rat tibialis anterior (TA) muscle tissues; assay: In vitro ischemic tibialis anterior muscle tissue survival (H&E, TUNEL); type: cell-based, Sprague Dawley rats; settings: 5 mM injected, 3 days incubation
Procedure: Rat tibialis anterior (TA) muscle tissues were dissected immediately after sacrifice of Sprague Dawley rats (17 weeks old, 380-400 g, Harlan), injected with blank, 5 mM of adenosine or cladribine, and then incubated in 5 mL of complete media for 3 days.
The tissue samples were fixed in 10% neutral buffered formalin (Sigma-Aldrich), 6 μm sections were generated by a cryotome (Leica), and stained with hematoxyline and eosin (H&E) and with TUNEL staining. Microscopic analyses were performed using a light microscope (Zeiss M1) and ImagePro software.

With `Nc1ncnc2c1ncn2[C@@H]1O[C@H](CO)[C@@H](O)[C@H]1O` [adenosine] the “metabolic activity in early hypoxic phase” value (C2C12 cells; 0.1% hypoxia, MTS per cell) was “suppressed initially up to day 5”, the “metabolic activity maintained, of the initial metabolic activity” value (C2C12 cells; 0.1% hypoxia, day 11, MTS per cell) was “approximately 68%” and the “metabolic activity after transfer to normoxic conditions” value (C2C12 cells; after 11 days hypoxia) was “restored to a level equivalent to that in normoxic cells”. For the same compound, the “number of live nuclei (TUNEL)” value [1] was “slightly increased live nuclei”.
